These are literature values, as cited in patent US8686137B2, “Heterocyclic compounds and their uses” (Amgen Inc., priority 2010, dated 2014).

Structures are written as SMILES.

Series [1] deals with model of systemic lupus erythematosis. Conditions: in vivo.
Series [2] relates to mouse model of rheumatoid arthritis. As to conditions: in vivo.
In series [3] the target is T1, p110δ (Homo sapiens, UniProt O00329).
T1 sequence (O00329 1-1044): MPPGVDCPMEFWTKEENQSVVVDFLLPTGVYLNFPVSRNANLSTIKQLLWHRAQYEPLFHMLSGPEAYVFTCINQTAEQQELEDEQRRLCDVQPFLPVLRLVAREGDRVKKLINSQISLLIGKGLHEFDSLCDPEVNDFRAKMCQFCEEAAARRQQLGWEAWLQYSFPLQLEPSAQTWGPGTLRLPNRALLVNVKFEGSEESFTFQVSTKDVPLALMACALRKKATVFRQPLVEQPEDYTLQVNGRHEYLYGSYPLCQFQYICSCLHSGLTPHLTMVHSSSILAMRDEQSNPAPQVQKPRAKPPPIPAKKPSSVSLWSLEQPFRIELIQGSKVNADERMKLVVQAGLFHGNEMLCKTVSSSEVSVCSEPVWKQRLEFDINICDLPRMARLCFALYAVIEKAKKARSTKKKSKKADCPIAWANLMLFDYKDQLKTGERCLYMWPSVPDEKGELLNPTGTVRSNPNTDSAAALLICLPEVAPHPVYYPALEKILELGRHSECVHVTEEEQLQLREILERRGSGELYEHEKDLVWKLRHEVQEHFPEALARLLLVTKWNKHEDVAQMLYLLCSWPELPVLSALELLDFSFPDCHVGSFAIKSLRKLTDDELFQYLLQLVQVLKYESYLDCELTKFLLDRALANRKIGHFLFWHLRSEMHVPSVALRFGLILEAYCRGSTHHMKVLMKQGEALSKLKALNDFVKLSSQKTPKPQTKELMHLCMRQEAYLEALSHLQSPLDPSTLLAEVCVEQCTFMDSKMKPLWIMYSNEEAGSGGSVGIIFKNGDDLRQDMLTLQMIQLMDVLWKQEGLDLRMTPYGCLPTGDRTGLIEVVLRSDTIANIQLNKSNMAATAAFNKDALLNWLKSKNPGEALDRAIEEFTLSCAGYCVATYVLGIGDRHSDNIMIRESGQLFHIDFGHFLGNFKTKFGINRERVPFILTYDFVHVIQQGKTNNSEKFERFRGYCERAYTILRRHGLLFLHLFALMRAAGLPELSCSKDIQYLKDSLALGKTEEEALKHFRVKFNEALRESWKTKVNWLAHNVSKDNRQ

The subject of series [4] is passive cutaneous anaphylaxis (PCA). Conditions: absence of functional delta (compound or p110δ D910A mice).
The subject of series [5] is protein kinases.
For series [6], the system named is ovalbumin-induced airway inflammation.

For `O=C1NC(=O)/C(=C\c2ccc3nccnc3c2)S1` [AS 605240], the “onset of disease in a model of systemic lupus erythematosis” value in series [1] was “delay onset of disease”. Also, in series [2], the “efficacy in a mouse model of rheumatoid arthritis” value was “efficacious”.

With `Cc1ccccc1-n1c(Cn2cnc3c(N)ncnc32)nc2cccc(C)c2c1=O` [IC87114], the “inhibits p110δ” value in series [3] is on record as “high nanomolar range (triple digit)”. Besides, in series [4], the “passive cutaneous anaphylaxis (PCA)” value is listed as “significantly reduced”. For the same compound, the “activity against any protein kinases tested” value in series [5] is “no activity”. Further, in series [6], the “inflammation and disease in a murine model of asthma” value is recorded as “significantly ameliorate”.
